Experimental data taken from patent US20080009418A1, “Selective Inhibitors” (Alchemia LTD., priority 2004, published 2008).

Legend:
Human Melanocortin (MC3) = biological target: T1, Human Melanocortin (MC3) (Homo sapiens, UniProt P41968); assay: Radioligand binding, human melanocortin MC3 membranes, FlashPlate, [125I]-NDP-αMSH; conditions: compound at 10 μM; for A3: inhibition of radioligand binding: human MC3 membranes; for A3 radioligand binding inhibition: human melanocortin MC3 membranes
T1 construct: purchased Perkin Elmer Biosignal
T1 sequence (P41968 whole entry): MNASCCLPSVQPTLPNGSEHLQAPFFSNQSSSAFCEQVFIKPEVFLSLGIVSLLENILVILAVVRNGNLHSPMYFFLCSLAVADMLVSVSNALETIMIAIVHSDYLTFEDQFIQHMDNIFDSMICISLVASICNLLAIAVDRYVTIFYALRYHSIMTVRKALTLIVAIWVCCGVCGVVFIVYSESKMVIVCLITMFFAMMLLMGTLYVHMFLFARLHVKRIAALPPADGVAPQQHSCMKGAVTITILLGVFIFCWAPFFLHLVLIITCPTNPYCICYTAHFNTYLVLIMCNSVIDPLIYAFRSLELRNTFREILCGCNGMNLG
Outline: (§1)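 Cloned human receptor membranes were coated onto FlashPlate wells and incubated with radioligand and compound (added from a 0.5 mM DMSO daughter plate) for 1 hour at room temperature in the dark. Scintillation counting gave percent inhibition, with DMSO defining total and reference ligand defining non-specific binding.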

Human opioid (ORL1) = biological target: T2, Human opioid (ORL1) (Homo sapiens, UniProt P41146); assay: Radioligand binding, human opioid ORL1 membranes, FlashPlate, [125I]-Nociceptin; conditions: compound at 10 μM; for A10: inhibition of radioligand binding / A10 radioligand binding inhibition: human ORL1 membranes
T2 construct: purchased Perkin Elmer Biosignal
T2 sequence (P41146 whole entry): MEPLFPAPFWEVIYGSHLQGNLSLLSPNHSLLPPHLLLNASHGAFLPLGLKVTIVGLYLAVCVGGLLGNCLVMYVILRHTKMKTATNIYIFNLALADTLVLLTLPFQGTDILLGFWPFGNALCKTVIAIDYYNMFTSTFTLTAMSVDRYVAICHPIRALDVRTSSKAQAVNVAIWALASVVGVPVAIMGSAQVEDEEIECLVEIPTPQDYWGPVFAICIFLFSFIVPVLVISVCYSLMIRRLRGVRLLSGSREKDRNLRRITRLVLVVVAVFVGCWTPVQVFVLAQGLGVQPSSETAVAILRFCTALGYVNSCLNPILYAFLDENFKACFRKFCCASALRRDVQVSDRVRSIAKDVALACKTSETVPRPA
Outline: as §1

Human μ-opioid (MOP) = biological target: T3, Human μ-opioid (MOP) (Homo sapiens, UniProt P35372); assay: Radioligand binding, human μ-opioid (MOP) membranes, FlashPlate, [3H]-Naloxone; conditions: compound at 10 μM; for A7: inhibition of radioligand binding: human MOP membranes; for A7 radioligand binding inhibition: human μ-opioid (MOP) membranes
T3 construct: purchased Perkin Elmer Biosignal
T3 sequence (P35372 whole entry): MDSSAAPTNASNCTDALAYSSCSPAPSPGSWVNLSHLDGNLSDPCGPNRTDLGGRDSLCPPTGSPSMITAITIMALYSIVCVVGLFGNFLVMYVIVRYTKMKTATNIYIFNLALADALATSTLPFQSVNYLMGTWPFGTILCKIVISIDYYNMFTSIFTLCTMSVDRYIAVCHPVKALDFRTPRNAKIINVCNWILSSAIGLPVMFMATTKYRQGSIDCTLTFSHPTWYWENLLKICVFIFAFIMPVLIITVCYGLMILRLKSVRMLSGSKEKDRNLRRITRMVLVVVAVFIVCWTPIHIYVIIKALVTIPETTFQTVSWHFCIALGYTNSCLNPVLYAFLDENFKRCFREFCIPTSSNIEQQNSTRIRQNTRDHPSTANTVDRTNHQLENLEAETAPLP
Outline: as §1

[1] = biological target: T4, Human neuropeptide Y (NPY-Y1) (Homo sapiens, UniProt P25929); assay: Radioligand binding, human neuropeptide Y NPY-Y1 membranes, FlashPlate, [125I]-PYY; conditions: compound at 10 μM; for A9: inhibition of radioligand binding / A9 radioligand binding inhibition: human NPY-Y1 membranes
T4 construct: purchased Perkin Elmer Biosignal
T4 sequence (P25929 1-384): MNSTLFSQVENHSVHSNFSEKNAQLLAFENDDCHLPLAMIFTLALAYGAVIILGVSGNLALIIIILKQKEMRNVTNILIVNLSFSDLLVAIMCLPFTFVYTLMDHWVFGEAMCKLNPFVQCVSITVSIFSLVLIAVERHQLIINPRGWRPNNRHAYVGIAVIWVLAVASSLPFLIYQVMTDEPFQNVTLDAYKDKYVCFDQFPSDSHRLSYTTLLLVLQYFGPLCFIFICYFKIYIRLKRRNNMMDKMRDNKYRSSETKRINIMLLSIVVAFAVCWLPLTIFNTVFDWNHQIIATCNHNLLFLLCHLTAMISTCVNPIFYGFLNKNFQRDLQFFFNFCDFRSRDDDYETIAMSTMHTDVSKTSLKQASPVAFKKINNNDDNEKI
Outline: as §1

[2] = biological target: T5, Human melanin-concentrating hormone (MCH1) (Homo sapiens, UniProt Q99705); assay: Radioligand binding, human melanin-concentrating hormone MCH1 membranes, FlashPlate, [125I]-S36057; conditions: compound at 10 μM; for A6: inhibition of radioligand binding: [125I]-S36057, human MCH1 membranes; for A6 radioligand binding inhibition: human MCH1 membranes
T5 construct: purchased Perkin Elmer Biosignal
T5 sequence (Q99705 whole entry): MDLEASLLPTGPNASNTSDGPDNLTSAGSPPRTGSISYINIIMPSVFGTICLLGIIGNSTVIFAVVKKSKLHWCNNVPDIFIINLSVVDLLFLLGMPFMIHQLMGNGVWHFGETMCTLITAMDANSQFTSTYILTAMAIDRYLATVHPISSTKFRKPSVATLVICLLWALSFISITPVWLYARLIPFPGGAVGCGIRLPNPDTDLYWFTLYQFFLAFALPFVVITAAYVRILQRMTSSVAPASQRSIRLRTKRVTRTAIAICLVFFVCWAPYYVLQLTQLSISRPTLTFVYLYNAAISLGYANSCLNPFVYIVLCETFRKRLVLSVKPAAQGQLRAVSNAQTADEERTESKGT
Outline: as §1

Human neurokinin (NK1) = biological target: T6, Human neurokinin (NK1) (Homo sapiens, UniProt P25103); assay: Radioligand binding, human neurokinin NK1 membranes, filtration, [125I]-Substance P; conditions: compound at 10 μM; for A8: inhibition of radioligand binding: human NK1 membranes; for A8 radioligand binding inhibition: human neurokinin NK1 membranes
T6 construct: purchased Perkin Elmer Biosignal
T6 sequence (P25103 whole entry): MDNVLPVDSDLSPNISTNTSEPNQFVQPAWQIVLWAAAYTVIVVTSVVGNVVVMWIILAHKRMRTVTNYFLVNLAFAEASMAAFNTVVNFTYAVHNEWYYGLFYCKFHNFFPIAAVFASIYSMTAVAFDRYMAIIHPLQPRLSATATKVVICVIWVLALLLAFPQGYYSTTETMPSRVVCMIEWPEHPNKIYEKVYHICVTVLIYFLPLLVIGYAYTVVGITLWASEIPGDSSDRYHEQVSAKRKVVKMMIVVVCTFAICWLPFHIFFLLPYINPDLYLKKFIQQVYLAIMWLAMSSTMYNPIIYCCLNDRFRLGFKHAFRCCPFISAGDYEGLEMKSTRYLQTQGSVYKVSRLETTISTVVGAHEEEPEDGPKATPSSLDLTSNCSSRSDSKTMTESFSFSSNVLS
Outline: (§2)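 Percent inhibition of radioligand binding measured on recombinant human membranes: NK1 with [125I]-Substance P, KOP with [3H]-Diprenorphine. Incubation 1 h at room temperature, then harvest onto 0.3% PEI-soaked filters, cold Tris-HCl pH 7.4 washes and scintillation counting; non-specific binding from reference ligand wells.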

Human melanocortin (MC5) = biological target: T7, Human melanocortin (MC5) (Homo sapiens, UniProt P33032); assay: Radioligand binding, human melanocortin MC5 membranes, FlashPlate, [125I]-NDP-αMSH; conditions: compound at 10 μM; for A5: inhibition of radioligand binding: human MC5 membranes; for A5 radioligand binding inhibition: human melanocortin MC5 membranes
T7 construct: purchased Perkin Elmer Biosignal
T7 sequence (P33032 whole entry): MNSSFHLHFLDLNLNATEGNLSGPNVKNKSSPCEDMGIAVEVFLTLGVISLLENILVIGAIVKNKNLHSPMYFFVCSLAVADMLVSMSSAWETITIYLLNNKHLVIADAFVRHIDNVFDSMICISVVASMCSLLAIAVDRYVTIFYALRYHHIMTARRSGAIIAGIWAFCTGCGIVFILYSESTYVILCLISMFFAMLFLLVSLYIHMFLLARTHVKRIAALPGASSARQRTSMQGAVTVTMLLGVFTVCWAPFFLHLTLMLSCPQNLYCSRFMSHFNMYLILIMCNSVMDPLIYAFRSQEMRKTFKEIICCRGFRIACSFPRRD
Outline: as §1

Human Melanocortin (MC4) = biological target: T8, Human Melanocortin (MC4) (Homo sapiens, UniProt P32245); assay: Radioligand binding, human melanocortin MC4 membranes, FlashPlate, [125I]-NDP-αMSH; conditions: compound at 10 μM; for A4: inhibition of radioligand binding: human MC4 membranes; for A4 radioligand binding inhibition: human melanocortin MC4 membranes
T8 construct: purchased Perkin Elmer Biosignal
T8 sequence (P32245 whole entry): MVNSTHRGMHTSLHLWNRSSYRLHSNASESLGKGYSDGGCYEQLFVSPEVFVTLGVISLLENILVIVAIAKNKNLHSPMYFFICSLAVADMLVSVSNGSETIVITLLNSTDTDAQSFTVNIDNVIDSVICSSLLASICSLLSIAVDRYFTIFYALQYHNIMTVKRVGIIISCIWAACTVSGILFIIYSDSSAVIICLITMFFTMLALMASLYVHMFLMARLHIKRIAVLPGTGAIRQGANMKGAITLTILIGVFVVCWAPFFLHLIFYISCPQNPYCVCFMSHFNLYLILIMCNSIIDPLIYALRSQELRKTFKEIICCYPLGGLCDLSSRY
Outline: as §1

Mouse urotensin (mUR2) = biological target: T9, Mouse urotensin (mUR2) (Mus musculus, UniProt Q8VIH9); assay: Radioligand binding, mouse urotensin mUR2 membranes, FlashPlate, [125I]-Urotensin II; conditions: compound at 10 μM; for A11: inhibition of radioligand binding: mouse mUR2 membranes; for A11 radioligand binding inhibition: mouse urotensin mUR2 membranes
T9 construct: purchased Perkin Elmer Biosignal
T9 sequence (Q8VIH9 1-385): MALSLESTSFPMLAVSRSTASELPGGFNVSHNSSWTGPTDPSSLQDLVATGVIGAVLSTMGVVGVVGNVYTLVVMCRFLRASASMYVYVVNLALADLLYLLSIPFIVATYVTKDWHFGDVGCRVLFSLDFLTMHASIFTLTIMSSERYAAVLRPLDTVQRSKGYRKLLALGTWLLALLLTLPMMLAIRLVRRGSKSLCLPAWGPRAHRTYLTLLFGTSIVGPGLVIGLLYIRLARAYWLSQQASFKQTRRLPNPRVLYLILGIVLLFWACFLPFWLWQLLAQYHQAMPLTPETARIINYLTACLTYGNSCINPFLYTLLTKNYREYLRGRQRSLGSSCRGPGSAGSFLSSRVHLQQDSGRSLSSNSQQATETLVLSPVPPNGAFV
Outline: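 Cloned mouse urotensin (mUR2) receptor membranes from Perkin Elmer Biosignal were immobilized in FlashPlate microplates using a proprietary coating. Each well got 19.5 μl buffer, then 0.5 μl of DMSO, reference ligand, or compound. Adding 5 μl of [125I]-Urotensin II, diluted to 5× final concentration in binding buffer, started binding. Plates were sealed with TopSeal-A and incubated 1 hour at room temperature in the dark. Wells were counted for 30 seconds each on a TopCount after a 60-second delay, and percentage inhibition was calculated.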

Human δ-opioid (DOP) = biological target: T10, Human δ-opioid (DOP) (Homo sapiens, UniProt P41143); assay: Radioligand binding, human δ-opioid (DOP) membranes, FlashPlate, [3H]-Bremazocine; conditions: compound at 10 μM; for A1: inhibition of radioligand binding: human DOP membranes; for A1 radioligand binding inhibition: human δ-opioid (DOP) membranes
T10 construct: purchased Perkin Elmer Biosignal
T10 sequence (P41143 whole entry): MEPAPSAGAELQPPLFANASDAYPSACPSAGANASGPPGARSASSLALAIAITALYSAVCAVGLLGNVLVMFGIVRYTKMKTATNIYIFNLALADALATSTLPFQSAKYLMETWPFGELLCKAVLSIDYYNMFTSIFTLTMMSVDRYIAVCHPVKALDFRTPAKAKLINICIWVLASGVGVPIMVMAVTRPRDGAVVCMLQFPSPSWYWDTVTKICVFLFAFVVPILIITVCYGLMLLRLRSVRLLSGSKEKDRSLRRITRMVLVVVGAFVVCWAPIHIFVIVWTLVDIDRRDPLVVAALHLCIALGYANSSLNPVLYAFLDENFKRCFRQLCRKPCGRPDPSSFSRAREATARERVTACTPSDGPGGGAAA
Outline: as §1

Human κ-Opioid (KOP) = biological target: T11, Human κ-Opioid (KOP) (Homo sapiens, UniProt P41145); assay: Radioligand binding, human κ-opioid (KOP) membranes, filtration, [3H]-Diprenorphine; conditions: compound at 10 μM; for A2: inhibition of radioligand binding: human KOP membranes; for A2 radioligand binding inhibition: human κ-opioid (KOP) membranes
T11 construct: purchased Perkin Elmer Biosignal
T11 sequence (P41145 whole entry): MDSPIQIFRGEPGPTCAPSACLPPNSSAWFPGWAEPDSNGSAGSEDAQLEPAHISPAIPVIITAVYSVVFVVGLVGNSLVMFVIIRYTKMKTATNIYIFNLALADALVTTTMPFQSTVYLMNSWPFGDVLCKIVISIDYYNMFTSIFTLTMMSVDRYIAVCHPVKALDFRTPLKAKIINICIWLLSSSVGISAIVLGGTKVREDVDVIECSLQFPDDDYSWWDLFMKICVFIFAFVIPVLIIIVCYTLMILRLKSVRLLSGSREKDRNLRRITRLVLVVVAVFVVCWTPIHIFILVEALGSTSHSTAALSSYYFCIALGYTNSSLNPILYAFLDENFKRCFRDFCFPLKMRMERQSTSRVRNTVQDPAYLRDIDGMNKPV
Outline: as §2

Row | SMILES | A3: inhibition of radioligand binding (Human Melanocortin (MC3); [125I]-NDP-αMSH) | A10: inhibition of radioligand binding (Human opioid (ORL1); [125I]-Nociceptin) | A7: inhibition of radioligand binding (Human μ-opioid (MOP); [3H]-Naloxone) | A9: inhibition of radioligand binding ([1]; [125I]-PYY) | A6: inhibition of radioligand binding [2] | A8: inhibition of radioligand binding (Human neurokinin (NK1); [125I]-Substance P) | A5: inhibition of radioligand binding (Human melanocortin (MC5); [125I]-NDP-αMSH) | A4: inhibition of radioligand binding (Human Melanocortin (MC4); [125I]-NDP-αMSH) | A11: inhibition of radioligand binding (Mouse urotensin (mUR2); [125I]-Urotensin II) | A1: inhibition of radioligand binding (Human δ-opioid (DOP); [3H]-Bremazocine) | A2: inhibition of radioligand binding (Human κ-Opioid (KOP); [3H]-Diprenorphine) | A3 radioligand binding inhibition (Human Melanocortin (MC3)) | A10 radioligand binding inhibition (Human opioid (ORL1)) | A7 radioligand binding inhibition (Human μ-opioid (MOP)) | A9 radioligand binding inhibition [1] | A6 radioligand binding inhibition [2] | A8 radioligand binding inhibition (Human neurokinin (NK1)) | A5 radioligand binding inhibition (Human melanocortin (MC5)) | A4 radioligand binding inhibition (Human Melanocortin (MC4)) | A11 radioligand binding inhibition (Mouse urotensin (mUR2)) | further results
1 | N=C(N)NCC(=O)NC1C(OCc2ccc(-c3ccccc3)cc2)OC(COCc2ccc(Cl)cc2)C(O)C1OCc1ccc(-c2ccccc2)cc1 (stereo not shown) [compound 407] | + (“+” indicates greater than 50% inhibition at 10 μM) | + (“+” indicates greater than 50% inhibition at 10 μM) | − (“−” indicates less than 50% inhibition at 10 μM) | − (“−” indicates less than 50% inhibition at 10 μM) | + (“+” indicates greater than 50% inhibition at 10 μM) | + (“+” indicates greater than 50% inhibition at 10 μM) | + (“+” indicates greater than 50% inhibition at 10 μM) | + (“+” indicates greater than 50% inhibition at 10 μM) | − (“−” indicates less than 50% inhibition at 10 μM) | − (“−” indicates less than 50% inhibition at 10 μM) | − (“−” indicates less than 50% inhibition at 10 μM) |  |  |  |  |  |  |  |  |  | 
2 | NCCC(=O)NC1C(OCc2ccccc2)OC(COCc2ccccc2)C(O)C1OCc1ccc2ccccc2c1 (stereo not shown) [compound 367] |  |  |  |  |  |  |  |  |  |  |  |  |  |  |  |  |  |  |  |  | A3: inhibition of radioligand binding, human melanocortin (MC3) (Human Melanocortin (MC3); [125I]-NDP-αMSH): − (“−” indicates less than 50% inhibition at 10 μM); A10: inhibition of radioligand binding, human opioid (ORL1) (Human opioid (ORL1); [125I]-Nociceptin): − (“−” indicates less than 50% inhibition at 10 μM); A7: inhibition of radioligand binding, human μ-opioid (MOP) (Human μ-opioid (MOP); [3H]-Naloxone): − (“−” indicates less than 50% inhibition at 10 μM); A9: inhibition of radioligand binding, human neuropeptide Y (NPY-Y1) ([1]; [125I]-PYY): − (“−” indicates less than 50% inhibition at 10 μM); A6: inhibition of radioligand binding, human melanin-concentrating hormone (MCH1) ([2]; [125I]-S36057): − (“−” indicates less than 50% inhibition at 10 μM); A8: inhibition of radioligand binding, human neurokinin (NK1) (Human neurokinin (NK1); [125I]-Substance P): + (“+” indicates greater than 50% inhibition at 10 μM); A5: inhibition of radioligand binding, human melanocortin (MC5) (Human melanocortin (MC5); [125I]-NDP-αMSH): + (“+” indicates greater than 50% inhibition at 10 μM); A4: inhibition of radioligand binding, human melanocortin (MC4) (Human Melanocortin (MC4); [125I]-NDP-αMSH): + (“+” indicates greater than 50% inhibition at 10 μM); A11: inhibition of radioligand binding, mouse urotensin (mUR2) (Mouse urotensin (mUR2); [125I]-Urotensin II): − (“−” indicates less than 50% inhibition at 10 μM); A1: inhibition of radioligand binding, human δ-opioid (DOP) (Human δ-opioid (DOP); [3H]-Bremazocine): − (“−” indicates less than 50% inhibition at 10 μM); A2: inhibition of radioligand binding, human κ-opioid (KOP) (Human κ-Opioid (KOP); [3H]-Diprenorphine): − (“−” indicates less than 50% inhibition at 10 μM)
3 | N=C(N)NCCC(=O)NC1C(OCc2ccc(-c3ccccc3)cc2)OC(COCc2ccccc2)C(O)C1OCc1ccc2ccccc2c1 (stereo not shown) [compound 412] | + (“+” indicates greater than 50% inhibition at 10 μM) | + (“+” indicates greater than 50% inhibition at 10 μM) | − (“−” indicates less than 50% inhibition at 10 μM) | − (“−” indicates less than 50% inhibition at 10 μM) | + (“+” indicates greater than 50% inhibition at 10 μM) | + (“+” indicates greater than 50% inhibition at 10 μM) | + (“+” indicates greater than 50% inhibition at 10 μM) | + (“+” indicates greater than 50% inhibition at 10 μM) | − (“−” indicates less than 50% inhibition at 10 μM) | − (“−” indicates less than 50% inhibition at 10 μM) | − (“−” indicates less than 50% inhibition at 10 μM) |  |  |  |  |  |  |  |  |  | 
4 | COC[C@H]1OC(OCCc2ccccc2)[C@H](NC(=O)CNC(=N)N)[C@@H](OCc2ccc3ccccc3c2)[C@@H]1O (stereo partly shown) [compound 44] |  |  |  |  |  |  |  |  |  |  |  | − (“−” indicates less than 50% inhibition at 10 μM) | − (“−” indicates less than 50% inhibition at 10 μM) | − (“−” indicates less than 50% inhibition at 10 μM) | − (“−” indicates less than 50% inhibition at 10 μM) | − (“−” indicates less than 50% inhibition at 10 μM) | − (“−” indicates less than 50% inhibition at 10 μM) | + (“+” indicates greater than 50% inhibition at 10 μM) | + (“+” indicates greater than 50% inhibition at 10 μM) | − (“−” indicates less than 50% inhibition at 10 μM) | A1 radioligand binding inhibition (Human δ-opioid (DOP)): − (“−” indicates less than 50% inhibition at 10 μM); A2 radioligand binding inhibition (Human κ-Opioid (KOP)): − (“−” indicates less than 50% inhibition at 10 μM)
5 | CO[C@H]1[C@H](O)[C@@H](COCc2ccc(-c3ccccc3)cc2)OC(OCc2ccc3ccccc3c2)[C@@H]1NC(=O)CCCN (stereo partly shown) [compound 68] |  |  |  |  |  |  |  |  |  |  |  | + (“+” indicates greater than 50% inhibition at 10 μM) | − (“−” indicates less than 50% inhibition at 10 μM) | − (“−” indicates less than 50% inhibition at 10 μM) | − (“−” indicates less than 50% inhibition at 10 μM) | + (“+” indicates greater than 50% inhibition at 10 μM) | + (“+” indicates greater than 50% inhibition at 10 μM) | + (“+” indicates greater than 50% inhibition at 10 μM) | + (“+” indicates greater than 50% inhibition at 10 μM) | − (“−” indicates less than 50% inhibition at 10 μM) | A1 radioligand binding inhibition (Human δ-opioid (DOP)): − (“−” indicates less than 50% inhibition at 10 μM); A2 radioligand binding inhibition (Human κ-Opioid (KOP)): − (“−” indicates less than 50% inhibition at 10 μM)
